Literature values in paper PMC9516282, “Low prevalence of influenza A strains with resistance markers in Brazil during 2017–2019 seasons” (Frontiers in Public Health, 2022).

Tested on: PA:E199G
Design: method as in PMID 30670144
Settings: virus with PA:E199G substitution

Question: For `COC(=O)OCOc1c2n(ccc1=O)N([C@@H]1c3ccccc3SCc3c1ccc(F)c3F)[C@@H]1COCCN1C2=O` [BXM, baloxavir marboxil], which “RI (reduced inhibition) to BXM” value is on record?
Answer: 4.5 fold
